Data taken from patent publication US6288037A (BASF Aktiengesellschaft, priority 1996, dated 2001).
Where a SMILES comes first, the peptide text is derived from it.

Biological target: T1, N-His Ich-1 (Homo sapiens, UniProt P42575)
T1 construct: contains Ich-1 amino acid residues 167-435, with an initiator and polyhistidine tag fused to the amino terminus; initiator (Met) + polyhistidine tag (N); made in house
T1 sequence (P42575 184-333): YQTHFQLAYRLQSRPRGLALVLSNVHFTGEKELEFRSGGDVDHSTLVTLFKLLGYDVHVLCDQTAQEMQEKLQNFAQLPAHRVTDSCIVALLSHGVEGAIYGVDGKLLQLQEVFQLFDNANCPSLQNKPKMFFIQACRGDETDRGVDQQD
T1 sequence (P42575 334-452): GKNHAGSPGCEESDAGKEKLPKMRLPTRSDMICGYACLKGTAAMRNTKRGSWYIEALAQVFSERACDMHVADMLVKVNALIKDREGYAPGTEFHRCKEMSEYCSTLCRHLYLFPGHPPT
Assay: In vitro proteolysis assay: cleavage of candidate peptide substrates by N-His Ich-1 (reverse phase HPLC)
Type: biochemical
Settings: 10 μM peptide, 30° C., pH 6.2, 60 minute reaction
From the text: To identify peptide substrates for Ich-1, candidate peptides were used in in vitro proteolysis assays with recombinant Ich-1 protein. Human Ich-1 enzyme (the nucleotide and amino acid sequences for which are disclosed in Wang, L., et al. (1994) Cell 78:739-750) was expressed recombinantly with an N-terminal polyhistidine tag by methods described in Kamens, J., et al. (1995) J. Biol. Chem. 270:15250-15256. The resulting enzyme, called N-His Ich-1, contains Ich-1 amino acid residues 167-435, with an initiator and polyhistidine tag fused to the amino terminus. The recombinant N-His Ich-1 protein was purified by metal chelating column chromatography as described in Porath, J. (1992) Protein Expression and Purification 3:263-281.
Candidate peptide substrates were synthesized by standard solid phase methods and were purified to ≥95% by reverse-phase chromatography. Peptide identities were confirmed by mass spectrometry. Each peptide was acetylated at the amino-terminus and amidated at the carboxy-terminus. The amino acid sequence of each peptide included at least one Trp or Tyr residue. Stock solutions of each peptide were prepared in dimethylsulfoxide (DMSO) at approximately 10 mM. The precise concentration of each stock solution was determined in duplicate as described in Edelhoch, H. (1967) Biochemistry 6:1948-1954. Dilutions of each stock solution to 500 μM were prepared and stored at -20° C. prior to use in enzyme assays.
To determine the substrate specificity of Ich-1, Vmax /Km values for various candidate peptide substrates were compared using experimental procedures modeled after those of Howard, A., et al. (1991) J. Immunol. 147:2964-2969. Enzyme reaction mixtures (810 μL) were prepared containing: 100 mM sodium acetate (pH 6.2), 20% (v/v) glycerol, 5 mM dithiothreitol, 0.5 mM EDTA and approximately 15 μg N-His Ich-1. These mixtures were capped and preincubated for 30 minutes at 30° C. Candidate peptide substrates were added from 500 μM DMSO stocks to give final concentrations of 10 μM peptide and 2% (v/v) DMSO. The reaction mixtures were then capped and incubation was continued at 30° C. At 10 minute intervals for 60 minutes beginning at t=0, aliquots of 110 μL were removed from each reaction mixture and added to vials containing 11 μL of a solution of 3 M HCl in water to stop the enzyme reaction. Samples were stored at room temperature prior to analysis.
Samples were analyzed by reverse phase HPLC using a 250×4.6 mm C18 reverse phase column (Vydak, Hesperia, Calif.) and a linear gradient of MeCN--H2 O with 0.1% (v/v) TFA. The area under the substrate peaks (arbitrary units) was plotted vs. time of reaction for each substrate and fit into an equation of the form: [formula]
wherein S0 is substrate peak area at time=0, St is substrate peak area at time=t, e is a constant approximately equal to 2.718, k is the first order rate constant formally equal to Vmax /Km and t is time. […] Alternatively, results can be expressed as percent substrate cleavage after a fixed time of reaction.

Row | % Cleavage after 60 minute reaction | SMILES
1 | 80% | CC(=O)N[C@@H](CCCNC(=N)N)C(=O)NCC(=O)N[C@H](C(=O)N[C@@H](CC(=O)O)C(=O)N[C@@H](CCC(N)=O)C(=O)N[C@@H](CCC(N)=O)C(=O)N[C@@H](CC(=O)O)C(=O)NCC(=O)N[C@@H](CCCCN)C(=O)N[C@@H](CC(N)=O)C(=O)N[C@@H](Cc1c[nH]cn1)C(=O)N[C@@H](Cc1c[nH]c2ccccc12)C(N)=O)C(C)C [Peptide 1, acetyl-RGVDQQDGKNHW-amide] (Ac-RGVDQQDGKNHW-NH2)
2 | 0% | CC(=O)N[C@@H](CC(N)=O)C(=O)N[C@@H](CCC(=O)O)C(=O)N[C@@H](C)C(=O)N[C@@H](Cc1ccc(O)cc1)C(=O)N[C@H](C(=O)N[C@@H](Cc1c[nH]cn1)C(=O)N[C@@H](CC(=O)O)C(=O)N[C@@H](C)C(=O)N1CCC[C@H]1C(=O)N[C@H](C(=O)N[C@@H](CCCNC(=N)N)C(=O)N[C@@H](CO)C(=O)N[C@@H](CC(C)C)C(=O)N[C@@H](Cc1ccc(O)cc1)C(N)=O)C(C)C)C(C)C [Peptide 2, acetyl-NEAYVHDAPVRSLY-amide] (Ac-NEAYVHDAPVRSLY-NH2)
3 | 0% | CC(=O)N[C@@H](Cc1c[nH]c2ccccc12)C(=O)NCC(=O)N[C@@H](CC(=O)O)C(=O)N[C@@H](CCC(=O)O)C(=O)N[C@H](C(=O)N[C@@H](CC(=O)O)C(=O)NCC(=O)N[C@H](C(=O)N[C@@H](CC(=O)O)C(=O)N[C@@H](CCC(=O)O)C(=O)N[C@H](C(=O)N[C@@H](Cc1c[nH]c2ccccc12)C(N)=O)C(C)C)C(C)C)C(C)C [Peptide 3, acetyl-WGDEVDGVDEVW-amide] (Ac-WGDEVDGVDEVW-NH2)
4 | 0% | CC(=O)N[C@@H](Cc1c[nH]cn1)C(=O)N[C@@H](CO)C(=O)N[C@@H](CC(C)C)C(=O)N[C@@H](CC(=O)O)C(=O)N[C@@H](CC(N)=O)C(=O)N[C@@H](CCCCN)C(=O)N[C@@H](CC(=O)O)C(=O)NCC(=O)N1CCC[C@H]1C(=O)N[C@H](C(=O)N[C@@H](Cc1c[nH]c2ccccc12)C(N)=O)C(C)C [Peptide 4, acetyl-HSLDNKDGPVW-amide] (Ac-HSLDNKDGPVW-NH2)
5 | 1% | CSCC[C@H](NC(=O)[C@H](CC(=O)O)NC(=O)[C@H](CCC(=O)O)NC(=O)CNC(C)=O)C(=O)N[C@@H](CCC(N)=O)C(=O)N[C@@H](CC(=O)O)C(=O)N[C@@H](CC(N)=O)C(=O)N[C@@H](CO)C(=O)NCC(=O)N[C@H](C(=O)N[C@@H](Cc1ccc(O)cc1)C(=O)N[C@@H](Cc1c[nH]c2ccccc12)C(N)=O)[C@@H](C)O [Peptide 5, acetyl-GEDMQDNSGTYW-amide] (Ac-GEDMQDNSGTYW-NH2)
6 | 8% | CC[C@H](C)[C@H](NC(=O)CNC(=O)[C@H](CS)NC(C)=O)C(=O)N[C@@H](CCC(=O)O)C(=O)N[C@H](C(=O)N[C@@H](CC(=O)O)C(=O)N[C@@H](CO)C(=O)NCC(=O)N[C@H](C(=O)N[C@@H](CC(=O)O)C(=O)N[C@@H](CC(=O)O)C(=O)N[C@@H](Cc1c[nH]c2ccccc12)C(N)=O)C(C)C)[C@@H](C)O [Peptide 7, acetyl-CGIETDSGVDDW-amide] (Ac-CGIETDSGVDDW-NH2)

Row | SMILES | % Cleavage after 60 minute reaction
7 | CSCC[C@H](NC(=O)[C@H](CCC(N)=O)NC(=O)[C@H](CC(=O)O)NC(=O)[C@H](CO)NC(=O)[C@H](Cc1ccc(O)cc1)NC(C)=O)C(=O)N[C@@H](CC(=O)O)C(=O)NCC(=O)N[C@@H](Cc1ccccc1)C(=O)N[C@@H](Cc1c[nH]cn1)C(=O)N[C@@H](CC(=O)O)C(=O)N[C@@H](CO)C(=O)N[C@@H](Cc1c[nH]c2ccccc12)C(N)=O [Peptide 6, acetyl-YSDQMDGFHDSW-amide] (Ac-YSDQMDGFHDSW-NH2) | 0%

Same assay, conditions: Tables 1-3

Row | SMILES | cleavage by N-His Ich-1 (in words)
8 | CC(=O)N[C@@H](CCCNC(=N)N)C(=O)NCC(=O)N[C@H](C(=O)N[C@@H](CC(=O)O)C(=O)N[C@@H](CCC(N)=O)C(=O)N[C@@H](CCC(N)=O)C(=O)N[C@@H](CC(=O)O)C(=O)NCC(=O)N[C@@H](CCCCN)C(=O)N[C@@H](CC(N)=O)C(=O)N[C@@H](Cc1c[nH]cn1)C(=O)N[C@@H](Cc1c[nH]c2ccccc12)C(N)=O)C(C)C [Peptide 1, acetyl-RGVDQQDGKNHW-amide] (Ac-RGVDQQDGKNHW-NH2) | cleaved at a rate significantly greater than the other tested peptides
9 | CC(=O)N[C@@H](CC(=O)O)C(=O)N[C@@H](CC(=O)O)C(=O)N[C@@H](CCC(N)=O)C(=O)N[C@@H](CCC(N)=O)C(=O)N[C@@H](CC(=O)O)C(=O)NCC(=O)N[C@@H](Cc1c[nH]c2ccccc12)C(N)=O [Peptide 21, acetyl-DDQQDGW-amide] (Ac-DDQQDGW-NH2) | weak cleavage
